Measured values as given in patent publication US10888548B2, “Anti-dandruff compositions comprising a spirofuranone lactam tetramic acid derivative” (priority 2015, dated 2021).

Tested on: Malassezia furfur (ATCC #38593)
Test: M. furfur efficacy assay (anti-fungal activity, Alamar blue, 96 well plates)
Type: cell-based
Experimental: Malassezia furfur (ATCC #38593) was cultured on Media C agar for 7 d at 37° C. Yeast colonies were then harvested into 0.9% saline sterile diH2O and diluted to approximately 1.5×10^6 CFU/mL using a 0.5 MacFarland standard (Fisher #R20410) to create an assay inoculum. Assay inoculum was added to sterile Media C broth to a final concentration of 4.5×10^4 CFU/mL. Assays were carried out in 96 well plates with a final well volume of 100 μL.
Extract fractions and pure compounds were tested in triplicate against each organism. Extract fractions and pure compounds were resuspended in sterile 20% DMSO.
Each plate contained eight uninoculated positive controls (media+20% DMSO), eight untreated negative controls (Media+20% DMSO+organism), and one column containing a concentration range of a ketoconazole as a control antibiotic. The assay plate was incubated at 37° C. for 5d after which growth within the wells were visualized and photographed with a UVP Biospectrum 500 imaging system. Alamar blue was then added to each well at 10% of the culture volume (11 μL in 100 μL). Fluorescence was monitored using a BioTek Synergy HT plate reader at 530/25 excitation, 590/35 emission and 35 sensitivity at both time zero and 4 hrs after Alamar blue was added. After subtracting the time zero emission 590 nm measurement from the final reading the inferred percentage of microorganism survival relative to vehicle control wells were calculated.
Experimentation was carried out to assess the anti-fungal effect of the produced fumagillin derivative and the pseurotin A each on their own, and in combination against M. furfur in a shampoo type formulation.
Initially the M. furfur efficacy assay was tested with both J&J Baby Shampoo as well as Head & Shoulders to establish a baseline and assess the compatibility of the assay using a shampoo. Compositions of the fumagillin derivative with and without pseurotin A were created and suspended into the baby shampoo. The shampoo mixture was then diluted out into the assay in a similar manner to Head & Shoulders, so that various dilution points in the assay represented multiple sub-inhibitory concentrations of the fumagillin derivative and pseurotin A (concentration combinations are listed in Table 1).

In the case of `CC/C=C\[C@H](O)[C@H](O)C1=C(C)C(=O)[C@]2(O1)C(=O)N[C@@](OC)(C(=O)c1ccccc1)[C@@H]2O` [Pseurotin A, pseurotin A], the IC50 (active alone, M. furfur, incubated at 37° C. for 5d) is reported as 55 µg/mL, the MIC (active alone, M. furfur, incubated at 37° C. for 5d, listed as Pseurotin A (sample 1)) is reported as 128 µg/mL and the MIC (active alone, M. furfur, incubated at 37° C. for 5d, listed as Pseurotin A (sample 2)) is reported as 75 µg/mL. The “anti-Malassezia activity of isolated pure fractions” value (fraction 6 and fraction 10 of Peyronellaea sp. RKDO347 extract) was “demonstrated anti-Malassezia activity”.
